Data set [1] concerns SARS-CoV-2. The note with it: cell-based studies; cited from earlier work.
The target of data set [2] is T1, SARS-CoV-2 M^pro (Severe acute respiratory syndrome coronavirus 2, UniProt P0DTD1).
T1 construct: purchased Life Sensors
As to the kind of experiment: biochemical. Conditions: 0.1 μM M^pro, 50 μM fluorogenic substrate, 30 min pre-incubation, 37° C., non-linear regression of initial rates; read-out: IC50 against M^pro.

Data set [3] concerns HEK-293 cells. Conditions: 72 hours.
For data set [4], the target named is T1, SARS-CoV-2 M^pro. As to the kind of experiment: LC/MS analysis of enzyme inhibition assay well solution for cleavage of UCI-1 by M^pro. The note with it: 187.5 μM UCI-1 well solution after 4 hours, compared with peptide-1c spike. It counts as biochemical.

Each structure is given as a SMILES string. Numbered stars: 1 amine (or outer) side, 2 acyl side, 3 side chain; on linkers, the order of the positions; unused ones are H or OH. Square brackets hold non-standard residues; d marks the D form. Peptide text beside a SMILES is read from it. X1 = O=C(Cc1ccc(CCN[*:1])cc1)[*:2]

For `O=C[C@H](C[C@@H]1CCNC1=O)NC(=O)[C@H](CC1CCCCC1)NC(=O)c1cc2ccccc2[nH]1` [11a], the SARS-CoV-2 replication entry in data set [1] is listed as “block SARS-CoV-2 replication”.

On to `O=C[C@H](C[C@@H]1CCNC1=O)NC(=O)[C@H](Cc1cccc(F)c1)NC(=O)c1cc2ccccc2[nH]1` [11b], for which, in data set [1], the SARS-CoV-2 replication entry is “block SARS-CoV-2 replication”.

Turning to `CC(C)(C)OC(=O)Nc1cccn([C@@H](CC2CC2)C(=O)N[C@@H](C[C@@H]2CCNC2=O)C(=O)C(=O)NCc2ccccc2)c1=O` [13b], in data set [1], the SARS-CoV-2 replication result was “block SARS-CoV-2 replication”.

In the case of `Cc1cc(C(=O)NC(C)C(=O)NC(C(=O)NC(CC(C)C)C(=O)NC(C=CC(=O)OCc2ccccc2)CC2CCNC2=O)C(C)C)no1` (centres unmarked) [N3], the SARS-CoV-2 replication entry in data set [1] is recorded as “block SARS-CoV-2 replication”.

With `NCCCC[C@@H]1NC(=O)[C@H](CO)NC(=O)[C@H](CCC(N)=O)NC(=O)[C@H](Cc2ccccc2)NC(=O)Cc2ccc(cc2)CCNC1=O` [UCI-1] (cyclo(FQSK[X1])), the 50% inhibitory concentration (IC50) in data set [2] is approximately 160 µM. Moreover, in data set [3] (concentrations up to 256 μM, HEK-293), the cytotoxicity entry is recorded as “not cytotoxic”. In addition, the “LDH release from HEK-293 cells” value in data set [3] (highest concentration evaluated (256 μM)) was “little or no LDH release”. Further, in data set [4], the “cleavage by M^pro” value was “not appreciably cleaved”.

(Values after US11753447B2, “Cyclic peptides, methods of synthesis, and methods of treatment” (priority 2020, dated 2023).)
